Here are results for 22 compounds from patent US11174268B2, “Benzenesulfonamide compouds and their use as therapeutic agents” (Xenon Pharmaceuticals Inc., priority 2016, dated 2021).

For data set [1], the target named is T1, NaV1.6 (Homo sapiens (Human), UniProt Q9UQD0). Put plainly: Electrophysiological Assay (EP), patch voltage clamp, NaV1.6.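 Further: sodium current recorded at ambient temperature, channels held inactivated then briefly repolarized to −150 mV for 20 ms before a test pulse, control currents in 0.5% DMSO.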 Type of data set: cell-based. To be noted: HEK-293 cells, whole-cell patch clamp. Background: In patch-clamp work, channel activity is measured electrically.
Data set [2] concerns the target T2, NaV1.1 (Homo sapiens (Human), UniProt P35498). Put plainly: Electrophysiological Assay (EP), patch voltage clamp, NaV1.1.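 Further: sodium current block measured at ambient temperature, holding at fully inactivating potential, 20 ms repolarization to −150 mV before test pulse, versus 0.5% DMSO control currents.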 In kind it is cell-based. The following applies: HEK-293 cells, whole-cell patch clamp.
Another data set deals with NaV1.5 (Homo sapiens (Human), UniProt Q14524). Briefly: Sodium Influx Assay (Flux), NaV1.5. To be noted: read-out: Flux NaV1.5 IC50; Trex HEK293 cells, ANG2 dye, inactivated state.
The target of data set [3] is T1, NaV1.6. Put plainly: Sodium Influx Assay (Flux), NaV1.6.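 Further: Tetracycline-induced cells, compounds applied for one hour at room temperature with modulators holding channels open, IC50 from percent inhibition of sodium influx.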 Type of data set: cell-based. To be noted: Trex HEK293 cells, ANG2 dye, inactivated state.
The target of data set [4] is T2, NaV1.1. Briefly: Sodium Influx Assay (Flux), NaV1.1.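 Further: channels co-expressed with human β1 subunit and held open by modulators, cells exposed to compounds for one hour at room temperature, IC50 from percent inhibition of influx.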 Type of data set: cell-based. To be noted: Trex HEK293 cells, ANG2 dye, inactivated state.

T1 sequence (Q9UQD0 whole entry): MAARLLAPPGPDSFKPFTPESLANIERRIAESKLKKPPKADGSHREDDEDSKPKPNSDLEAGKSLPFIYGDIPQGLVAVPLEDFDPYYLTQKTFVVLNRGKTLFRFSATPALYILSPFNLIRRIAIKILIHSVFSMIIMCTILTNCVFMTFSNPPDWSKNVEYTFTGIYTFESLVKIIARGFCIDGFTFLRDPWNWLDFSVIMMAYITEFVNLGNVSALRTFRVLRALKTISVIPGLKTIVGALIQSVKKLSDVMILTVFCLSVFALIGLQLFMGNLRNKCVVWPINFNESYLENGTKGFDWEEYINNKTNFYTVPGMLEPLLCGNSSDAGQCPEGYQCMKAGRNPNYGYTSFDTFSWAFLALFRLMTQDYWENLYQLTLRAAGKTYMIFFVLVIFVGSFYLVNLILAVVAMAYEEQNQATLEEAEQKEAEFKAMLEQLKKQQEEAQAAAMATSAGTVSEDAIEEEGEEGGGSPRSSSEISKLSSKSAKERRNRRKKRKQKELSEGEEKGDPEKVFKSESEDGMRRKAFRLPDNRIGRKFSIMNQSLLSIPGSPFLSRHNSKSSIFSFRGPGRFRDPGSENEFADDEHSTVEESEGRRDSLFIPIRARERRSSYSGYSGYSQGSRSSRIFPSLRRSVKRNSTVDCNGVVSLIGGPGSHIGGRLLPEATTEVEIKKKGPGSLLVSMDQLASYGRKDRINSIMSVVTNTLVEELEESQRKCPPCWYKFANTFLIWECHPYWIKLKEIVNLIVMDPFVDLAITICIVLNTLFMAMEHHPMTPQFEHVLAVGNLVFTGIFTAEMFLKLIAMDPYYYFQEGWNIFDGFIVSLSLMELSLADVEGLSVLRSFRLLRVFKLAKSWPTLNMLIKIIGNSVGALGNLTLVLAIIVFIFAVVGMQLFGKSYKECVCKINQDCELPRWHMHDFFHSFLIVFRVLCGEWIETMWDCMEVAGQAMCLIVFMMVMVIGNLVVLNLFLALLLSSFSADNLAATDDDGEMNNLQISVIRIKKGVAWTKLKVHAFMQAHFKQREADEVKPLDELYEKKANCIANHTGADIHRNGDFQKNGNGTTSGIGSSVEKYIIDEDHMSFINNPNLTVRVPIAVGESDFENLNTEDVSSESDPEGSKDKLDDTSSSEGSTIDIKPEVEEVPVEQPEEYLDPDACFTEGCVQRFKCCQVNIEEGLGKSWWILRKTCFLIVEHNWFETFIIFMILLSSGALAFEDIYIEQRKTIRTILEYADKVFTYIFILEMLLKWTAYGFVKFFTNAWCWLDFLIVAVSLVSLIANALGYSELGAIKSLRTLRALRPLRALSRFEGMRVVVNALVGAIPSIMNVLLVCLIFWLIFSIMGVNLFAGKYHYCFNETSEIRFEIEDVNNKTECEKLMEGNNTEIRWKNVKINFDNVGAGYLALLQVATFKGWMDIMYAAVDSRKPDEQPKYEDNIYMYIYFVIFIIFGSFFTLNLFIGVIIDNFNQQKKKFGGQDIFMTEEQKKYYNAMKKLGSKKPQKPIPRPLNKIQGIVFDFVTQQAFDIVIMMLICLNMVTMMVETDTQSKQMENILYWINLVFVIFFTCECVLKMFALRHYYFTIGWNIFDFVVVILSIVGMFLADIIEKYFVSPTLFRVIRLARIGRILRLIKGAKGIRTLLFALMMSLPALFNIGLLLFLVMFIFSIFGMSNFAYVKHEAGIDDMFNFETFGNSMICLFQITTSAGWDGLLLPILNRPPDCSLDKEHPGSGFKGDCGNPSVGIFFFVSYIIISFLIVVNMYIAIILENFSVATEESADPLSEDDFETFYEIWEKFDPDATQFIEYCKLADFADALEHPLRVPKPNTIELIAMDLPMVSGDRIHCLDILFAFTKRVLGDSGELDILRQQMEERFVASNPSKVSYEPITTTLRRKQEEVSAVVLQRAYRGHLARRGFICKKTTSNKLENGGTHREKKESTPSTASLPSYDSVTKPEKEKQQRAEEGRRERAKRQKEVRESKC
NaV1.5, sequence (Q14524 other isoform, or with tags, fused parts or gaps): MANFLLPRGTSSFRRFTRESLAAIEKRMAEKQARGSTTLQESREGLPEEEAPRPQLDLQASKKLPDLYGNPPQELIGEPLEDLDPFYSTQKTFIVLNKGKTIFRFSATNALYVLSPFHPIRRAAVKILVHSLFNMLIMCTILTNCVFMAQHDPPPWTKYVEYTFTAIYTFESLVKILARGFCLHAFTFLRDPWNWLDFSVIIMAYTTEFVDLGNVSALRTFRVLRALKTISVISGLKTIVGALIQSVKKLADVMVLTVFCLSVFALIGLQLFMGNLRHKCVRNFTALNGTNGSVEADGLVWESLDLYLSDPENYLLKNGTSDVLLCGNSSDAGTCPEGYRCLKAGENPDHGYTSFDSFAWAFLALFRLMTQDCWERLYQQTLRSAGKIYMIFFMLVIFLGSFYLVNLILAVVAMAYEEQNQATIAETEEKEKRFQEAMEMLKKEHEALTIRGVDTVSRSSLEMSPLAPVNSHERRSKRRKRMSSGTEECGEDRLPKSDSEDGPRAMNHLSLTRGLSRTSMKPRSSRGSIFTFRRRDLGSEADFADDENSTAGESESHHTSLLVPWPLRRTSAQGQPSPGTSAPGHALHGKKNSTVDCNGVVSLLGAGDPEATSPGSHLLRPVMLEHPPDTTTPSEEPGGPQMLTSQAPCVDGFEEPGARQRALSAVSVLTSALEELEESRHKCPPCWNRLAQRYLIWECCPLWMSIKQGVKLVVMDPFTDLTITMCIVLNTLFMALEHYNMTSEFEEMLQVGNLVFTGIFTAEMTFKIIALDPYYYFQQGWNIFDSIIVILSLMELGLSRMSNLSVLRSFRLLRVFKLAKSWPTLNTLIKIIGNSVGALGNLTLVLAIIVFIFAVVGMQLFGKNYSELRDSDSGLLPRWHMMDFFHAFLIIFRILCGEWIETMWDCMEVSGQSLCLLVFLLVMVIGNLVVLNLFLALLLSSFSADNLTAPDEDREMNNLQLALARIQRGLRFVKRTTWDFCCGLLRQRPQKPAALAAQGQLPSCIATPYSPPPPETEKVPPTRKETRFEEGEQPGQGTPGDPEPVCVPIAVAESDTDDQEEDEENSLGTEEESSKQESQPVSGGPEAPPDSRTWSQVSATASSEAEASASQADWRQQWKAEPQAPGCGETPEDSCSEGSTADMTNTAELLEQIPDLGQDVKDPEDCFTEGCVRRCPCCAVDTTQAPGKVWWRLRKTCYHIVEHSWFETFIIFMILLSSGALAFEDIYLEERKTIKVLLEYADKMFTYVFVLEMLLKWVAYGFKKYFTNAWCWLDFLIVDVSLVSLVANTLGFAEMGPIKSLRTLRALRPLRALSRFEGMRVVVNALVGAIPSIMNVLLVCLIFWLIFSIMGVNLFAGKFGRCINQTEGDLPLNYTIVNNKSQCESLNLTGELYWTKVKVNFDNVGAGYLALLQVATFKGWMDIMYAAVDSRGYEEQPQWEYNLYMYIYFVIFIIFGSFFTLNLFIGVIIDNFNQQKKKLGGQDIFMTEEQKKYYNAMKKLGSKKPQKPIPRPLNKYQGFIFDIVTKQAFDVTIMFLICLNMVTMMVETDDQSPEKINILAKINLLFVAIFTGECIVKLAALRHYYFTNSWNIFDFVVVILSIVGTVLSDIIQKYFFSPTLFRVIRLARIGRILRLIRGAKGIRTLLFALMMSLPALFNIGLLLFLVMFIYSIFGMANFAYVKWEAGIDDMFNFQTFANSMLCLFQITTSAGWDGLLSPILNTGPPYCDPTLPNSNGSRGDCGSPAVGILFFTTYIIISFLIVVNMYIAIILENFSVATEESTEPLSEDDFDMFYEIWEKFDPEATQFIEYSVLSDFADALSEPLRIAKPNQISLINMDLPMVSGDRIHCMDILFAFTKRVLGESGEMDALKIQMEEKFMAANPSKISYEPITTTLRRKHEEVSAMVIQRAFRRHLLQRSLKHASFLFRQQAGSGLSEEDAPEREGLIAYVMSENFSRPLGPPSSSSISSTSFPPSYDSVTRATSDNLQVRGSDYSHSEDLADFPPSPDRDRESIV

In general, IC50 refers to the concentration that gives 50% inhibition. With `O=S(=O)(Nc1nccs1)c1cc(Cl)c(NC2(c3ccc(F)cc3)CC2)cc1F` [Example 44, 5-chloro-2-fluoro-4-((1-(4-fluorophenyl)cyclopropyl)amino)-N-(thiazol-2-yl)benzenesulfonamide], the IC50 on NaV1.6 [1] came to 130 nM; against NaV1.1 [2] it was 2090 nM; on NaV1.5, 30000 nM; at NaV1.6 [3], 347 nM; against NaV1.1 [4], 1270 nM.

On to `CC[C@H](Nc1cc(F)c(S(=O)(=O)Nc2nccs2)cc1Cl)c1ccccc1F` [Example 47, (S)-5-chloro-2-fluoro-4-((1-(2-fluorophenyl)propyl)amino)-N-(thiazol-2-yl)benzenesulfonamide], for which the IC50 on NaV1.6 [1] was found to be 10 nM; on NaV1.1 [2], 114 nM; at NaV1.5, 6520 nM; against NaV1.6 [3], 89 nM; against NaV1.1 [4], 816 nM.

Regarding `C[C@H](Nc1cc(F)c(S(=O)(=O)Nc2nccs2)cc1Cl)c1cccc(F)c1` [Example 49, (S)-5-chloro-2-fluoro-4-((1-(3-fluorophenyl)ethyl)amino)-N-(thiazol-2-yl)benzenesulfonamide], the IC50 on NaV1.6 [1] stood at 19 nM; against NaV1.1 [2], 260 nM; at NaV1.5 it was 4750 nM; on NaV1.6 [3], 232 nM; against NaV1.1 [4] it was 888 nM.

Consider `CC[C@H](Nc1cc(F)c(S(=O)(=O)Nc2nccs2)cc1Cl)c1ccccc1C` [Example 54, (S)-5-chloro-2-fluoro-N-(thiazol-2-yl)-4-((1-(o-tolyl)propyl)amino)benzenesulfonamide], for which the IC50 is 25 nM against NaV1.6 [1]; 1020 nM against NaV1.1 [2]; 13500 nM at NaV1.5; 265 nM against NaV1.6 [3]; 3240 nM against NaV1.1 [4].

For `CC(Cc1cccnc1)Nc1cc(F)c(S(=O)(=O)Nc2nccs2)cc1Cl` (centres unmarked) [Example 56, 5-chloro-2-fluoro-4-((1-(pyridin-3-yl)propan-2-yl)amino)-N-(thiazol-2-yl)benzenesulfonamide], the IC50 against NaV1.6 [1] was 292 nM; at NaV1.1 [2] it was 1420 nM; at NaV1.5, 30000 nM; at NaV1.6 [3], 949 nM; at NaV1.1 [4], 4030 nM.

Turning to `O=S(=O)(Nc1cccc(F)n1)c1cc(Cl)c(NCc2cccc3ccncc23)cc1F` [Example 62, 5-chloro-2-fluoro-N-(6-fluoropyridin-2-yl)-4-((isoquinolin-8-ylmethyl)amino)benzenesulfonamide], the IC50 turned out to be 52 nM against NaV1.6 [1]; 3100 nM against NaV1.1 [2]; 30000 nM at NaV1.5; 138 nM at NaV1.6 [3]; 17300 nM on NaV1.1 [4].

Take `CN(C)CC(Nc1cc(F)c(S(=O)(=O)Nc2nccs2)cc1Cl)c1ccccc1` (centres unmarked) [Example 63, 5-Chloro-4-((2-(dimethylamino)-1-phenylethyl)amino)-2-fluoro-N-(thiazol-2-yl)benzenesulfonamide 2,2,2-trifluoroacetate]: the IC50 on NaV1.6 [1] was 66 nM; against NaV1.1 [2], 10000 nM; on NaV1.5, 30000 nM; at NaV1.6 [3], 392 nM; against NaV1.1 [4] it was 14100 nM.

Turning to `CN(C)C[C@@H](Nc1cc(F)c(S(=O)(=O)Nc2nccs2)cc1Cl)c1ccccc1` [Example 64, (S)-5-chloro-4-((2-(dimethylamino)-1-phenylethyl)amino)-2-fluoro-N-(thiazol-2-yl)benzenesulfonamide 2,2,2-trifluoroacetate], the IC50 against NaV1.6 [1] was determined as 85 nM; at NaV1.1 [2], 10000 nM; on NaV1.5, 30000 nM; against NaV1.6 [3], 197 nM; on NaV1.1 [4], 14500 nM.

Regarding `CN(C)C[C@H](Nc1cc(F)c(S(=O)(=O)Nc2nccs2)cc1Cl)c1ccccc1` [Example 65, (R)-5-chloro-4-((2-(dimethylamino)-1-phenylethyl)amino)-2-fluoro-N-(thiazol-2-yl)benzenesulfonamide 2,2,2-trifluoroacetate], the IC50 against NaV1.6 [1] was 87 nM; at NaV1.1 [2], 10000 nM; on NaV1.5 it was 30000 nM; against NaV1.6 [3], 1020 nM; against NaV1.1 [4], 2230 nM.

With `O=S(=O)(Nc1nccs1)c1cc(Cl)c(N[C@@H](CN2CCC2)c2ccccc2)cc1F` [Example 66, (R)-4-((2-(azetidin-1-yl)-1-phenylethyl)amino)-5-chloro-2-fluoro-N-(thiazol-2-yl)benzenesulfonamide 2,2,2-trifluoroacetate], the IC50 against NaV1.6 [1] amounted to 1110 nM; at NaV1.1 [2], 10000 nM; on NaV1.5, 30000 nM; against NaV1.6 [3], 1010 nM; at NaV1.1 [4], 908 nM.

As to `O=S(=O)(Nc1nccs1)c1cc(Cl)c(N[C@H](CN2CCC2)c2ccccc2)cc1F` [Example 67, (S)-4-((2-(azetidin-1-yl)-1-phenylethyl)amino)-5-chloro-2-fluoro-N-(thiazol-2-yl)benzenesulfonamide 2,2,2-trifluoroacetate], the IC50 was 119 nM against NaV1.6 [1]; 10000 nM against NaV1.1 [2]; 30000 nM at NaV1.5; 426 nM against NaV1.6 [3]; 10600 nM against NaV1.1 [4].

On to `O=S(=O)(Nc1nccs1)c1cc(Cl)c(N[C@H](CN2CCCC2)c2ccccc2)cc1F` [Example 70, (S)-5-chloro-2-fluoro-4-((1-phenyl-2-(pyrrolidin-1-yl)ethyl)amino)-N-(thiazol-2-yl)benzenesulfonamide], for which the IC50 amounted to 36 nM against NaV1.6 [1]; 10000 nM against NaV1.1 [2]; 30000 nM on NaV1.5; 181 nM against NaV1.6 [3]; 30000 nM against NaV1.1 [4].

For `O=S(=O)(Nc1cccc(F)n1)c1cc(Cl)c(N[C@H](CN2CCCC2)c2ccccc2)cc1F` [Example 72, (S)-5-chloro-2-fluoro-N-(6-fluoropyridin-2-yl)-4-((1-phenyl-2-(pyrrolidin-1-yl)ethyl)amino)benzenesulfonamide 2,2,2-trifluoroacetate], the IC50 at NaV1.6 [1] is 955 nM; against NaV1.1 [2], 10000 nM; on NaV1.5 it was 30000 nM; at NaV1.6 [3], 7100 nM; against NaV1.1 [4], 30000 nM.

`O=S(=O)(Nc1cscn1)c1cc(Cl)c(N[C@H](CN2CCCC2)c2ccccc2)cc1F` [Example 73, (S)-5-chloro-2-fluoro-4-((1-phenyl-2-(pyrrolidin-1-yl)ethyl)amino)-N-(thiazol-4-yl)benzenesulfonamide]: the half-inhibitory concentration (IC50) at NaV1.6 [1] turned out to be 1140 nM; against NaV1.1 [2], 10000 nM; at NaV1.5, 30000 nM; on NaV1.6 [3], 3870 nM; against NaV1.1 [4] it was 23100 nM.

Take `O=S(=O)(Nc1nccs1)c1cc(Cl)c(NC(CN2CCOCC2)c2ccccc2)cc1F` (centres unmarked) [Example 74, 5-chloro-2-fluoro-4-((2-morpholino-1-phenylethyl)amino)-N-(thiazol-2-yl)benzenesulfonamide 2,2,2-trifluoroacetate]: the IC50 at NaV1.6 [1] was determined as 52 nM; on NaV1.1 [2], 1850 nM; at NaV1.5 it was 30000 nM; against NaV1.6 [3], 521 nM; against NaV1.1 [4] it was 2520 nM.

Regarding `C[C@H](Nc1cc(F)c(S(=O)(=O)Nc2nccs2)cc1Cl)c1ccccc1Cl` [Example 78, (S)-5-chloro-4-((1-(2-chlorophenyl)ethyl)amino)-2-fluoro-N-(thiazol-2-yl)benzenesulfonamide], the IC50 worked out at 15 nM against NaV1.6 [1]; 3100 nM at NaV1.1 [2]; 7010 nM at NaV1.5; 234 nM on NaV1.6 [3]; 4170 nM on NaV1.1 [4].

In the case of `C[C@H](Nc1ccc(S(=O)(=O)Nc2nccs2)cc1Cl)c1ccccc1F` [Example 79, (S)-3-chloro-4-((1-(2-fluorophenyl)ethyl)amino)-N-(thiazol-2-yl)benzenesulfonamide], the IC50 against NaV1.6 [1] was 39 nM; against NaV1.1 [2], 4410 nM; on NaV1.5, 2550 nM; against NaV1.6 [3], 237 nM; against NaV1.1 [4], 1540 nM.

On to `O=S(=O)(Nc1nccs1)c1cc(Cl)c(O[C@H](c2ccccc2)C(F)(F)F)cc1F` [Example 80, (R)-5-chloro-2-fluoro-N-(thiazol-2-yl)-4-(2,2,2-trifluoro-1-phenylethoxy)benzenesulfonamide], for which the IC50 against NaV1.6 [1] is 99 nM; against NaV1.1 [2], 10000 nM; at NaV1.5, 5750 nM; on NaV1.6 [3], 1740 nM; on NaV1.1 [4], 11100 nM.

For `CCC(Nc1ccc(S(=O)(=O)Nc2nccs2)cc1Cl)c1ccccn1` (centres unmarked) [Example 81, 3-chloro-4-((1-(pyridin-2-yl)propyl)amino)-N-(thiazol-2-yl)benzenesulfonamide], the IC50 amounted to 143 nM at NaV1.6 [1]; 10000 nM on NaV1.1 [2]; 30000 nM at NaV1.5; 652 nM on NaV1.6 [3]; 22500 nM on NaV1.1 [4].

On to `C[C@H](Oc1ccc(S(=O)(=O)Nc2ncns2)cc1Cl)c1ccccc1` [Example 88, (S)-3-chloro-4-(1-phenylethoxy)-N-(1,2,4-thiadiazol-5-yl)benzenesulfonamide], for which the IC50 worked out at 184 nM at NaV1.6 [1]; 10000 nM at NaV1.1 [2]; 18200 nM on NaV1.5; 1040 nM on NaV1.6 [3]; 30000 nM against NaV1.1 [4].

For the compound `CC[C@H](Nc1cc(F)c(S(=O)(=O)Nc2cscn2)cc1Cl)c1ccccc1` [Example 89, (S)-5-chloro-2-fluoro-4-((1-phenylpropyl)amino)-N-(thiazol-4-yl)benzenesulfonamide], the IC50 at NaV1.6 [1] turned out to be 239 nM; on NaV1.1 [2], 10000 nM; on NaV1.5, 9090 nM; against NaV1.6 [3], 948 nM; on NaV1.1 [4], 3850 nM.

Consider `O=S(=O)(Nc1nccs1)c1ccc(N[C@@H](CO)c2ccccc2)c(Cl)c1` [Example 91, (R)-3-chloro-4-((2-hydroxy-1-phenylethyl)amino)-N-(thiazol-2-yl)benzenesulfonamide], for which the IC50 came to 341 nM against NaV1.6 [1]; 10000 nM against NaV1.1 [2]; 30000 nM on NaV1.5; 927 nM on NaV1.6 [3]; 10700 nM on NaV1.1 [4].
